Results published in US20070264679A1, “Method for analyzing the activity of lipoxygenase using a water-soluble substrate” (Chungnam National University Industry Collaboration …, priority 2006, published 2007).

Key:
[1] = molecular target: T1, leukocyte LOX (Sus scrofa, UniProt P16469); experiment: Position specificity of leukocyte LOX in oxygenation of arachidonoyl-lysoPC (SP-HPLC of HETE); type: biochemical, porcine; details: predominant product 12-HETE
T1 construct: purchased Cayman Chemical Co. (Ann Arbor, Mich., USA)
T1 sequence (P16469 1-663): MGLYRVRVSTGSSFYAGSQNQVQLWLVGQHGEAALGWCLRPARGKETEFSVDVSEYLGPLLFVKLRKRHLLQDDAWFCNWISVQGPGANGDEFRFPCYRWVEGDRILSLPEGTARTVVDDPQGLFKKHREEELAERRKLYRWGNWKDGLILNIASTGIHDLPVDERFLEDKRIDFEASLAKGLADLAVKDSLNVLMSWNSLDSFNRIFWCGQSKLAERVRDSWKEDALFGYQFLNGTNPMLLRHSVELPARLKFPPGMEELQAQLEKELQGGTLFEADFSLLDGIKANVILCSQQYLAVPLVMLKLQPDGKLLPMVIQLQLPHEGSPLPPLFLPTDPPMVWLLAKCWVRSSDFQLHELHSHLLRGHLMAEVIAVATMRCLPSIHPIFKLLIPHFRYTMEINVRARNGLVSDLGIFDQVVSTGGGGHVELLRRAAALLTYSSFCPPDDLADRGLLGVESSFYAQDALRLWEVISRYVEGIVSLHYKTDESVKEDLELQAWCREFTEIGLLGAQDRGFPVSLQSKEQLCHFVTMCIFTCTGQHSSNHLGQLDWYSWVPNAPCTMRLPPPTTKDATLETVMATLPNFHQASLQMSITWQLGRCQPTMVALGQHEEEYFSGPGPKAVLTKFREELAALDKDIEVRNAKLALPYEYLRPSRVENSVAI
Protocol: After 30 min incubation, the reaction was stopped by the addition of sodium borohydride to reduce hydroperoxy compounds to their corresponding alcohols, which were subjected to alkaline hydrolysis. After 30 min incubation at 60° C. under N2, the mixture was subjected to lipid extraction as described previously (Leon et al, J. Agric. Food. Chem. 52 (2004) 1207-1211). Finally, the lipid extract was analyzed by SP-HPLC system equipped with silica gel column (4 μm, 150×3.9 mm, Waters, USA), which was eluted (1 ml/min) with n-hexane/isopropyl alcohol/acetic acid (100:1:0.05). The identification of hydrolysis products was carried out in comparison with each standard compound, 15-hydroxyeicosatetraenoic acid (HETE) or 12-HETE.
To establish the position of oxygenation of arachidonoyl chain in arachidonoyl-lysoPC, hydroperoxyeicosatetraenoyl-lysoPC was subjected to NaBH4 reduction, followed by saponification in alkaline medium, to afford hydroxyeicosatetraenoic acid, which was further purified by SP-HPLC.

[2] = molecular target: T2, Rabbit reticulocyte 15-lipoxygenase (reticulocyte LOX) (Oryctolagus cuniculus, UniProt P12530); experiment: Oxygenation of arachidonoyl lysophospholipids by reticulocyte LOX; type: biochemical; details: reticulocyte LOX 2 units/ml, 50 mM phosphate buffer pH 7.4
T2 construct: purchased Biomol Inc. (Plymouth Meeting, Pa., USA)
T2 sequence (P12530 1-663): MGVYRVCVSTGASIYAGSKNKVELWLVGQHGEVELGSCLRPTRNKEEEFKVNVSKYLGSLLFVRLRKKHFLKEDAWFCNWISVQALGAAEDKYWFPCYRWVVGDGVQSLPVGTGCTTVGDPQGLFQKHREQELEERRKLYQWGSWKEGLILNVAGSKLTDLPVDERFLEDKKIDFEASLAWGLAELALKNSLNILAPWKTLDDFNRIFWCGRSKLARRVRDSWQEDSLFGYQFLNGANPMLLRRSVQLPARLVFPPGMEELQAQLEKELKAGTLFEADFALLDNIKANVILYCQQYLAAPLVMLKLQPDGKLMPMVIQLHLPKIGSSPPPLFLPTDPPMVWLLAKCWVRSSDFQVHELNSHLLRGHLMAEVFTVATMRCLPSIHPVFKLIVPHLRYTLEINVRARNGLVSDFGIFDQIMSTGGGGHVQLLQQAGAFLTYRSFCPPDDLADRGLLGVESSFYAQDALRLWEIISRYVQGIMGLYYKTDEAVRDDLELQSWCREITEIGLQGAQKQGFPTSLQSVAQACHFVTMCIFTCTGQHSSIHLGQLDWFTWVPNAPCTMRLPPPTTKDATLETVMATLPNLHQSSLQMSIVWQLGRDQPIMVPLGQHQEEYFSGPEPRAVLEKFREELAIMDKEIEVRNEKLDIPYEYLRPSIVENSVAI
Protocol: (§1) Activities of various LOXs were monitored by measuring the increase in absorbance at 234 nm due to the formation of hydroperoxide (ε234=25,000 M^−1 cm^−1) at 25° C. as described before (Smith et al, J. Biol. Chem. 247 (1972) 1038-1047). One unit is defined as the amount of LOXs that can produce one nanomole of conjugated diene per min. The reaction mixture (500 μl) included reticulocyte LOX (2 units/ml) in 50 mM phosphate buffer (pH 7.4), porcine leukocyte LOX (1 unit/ml) in 100 mM phosphate buffer (pH 7.5) containing 5 mM EDTA and 0.03% Tween 20, or soybean LOX-1 (2.5 units/ml) in 50 mM borax buffer (pH 9.0) at 25° C. The reactions were started by including each substrate (100 μM) into the above reaction mixture.
(§2) Reticulocyte LOX (2 units/ml), leukocyte LOX (1 units/ml) or soybean LOX-1 (2.5 units/ml) was incubated with each arachidonoyl derivative substrate of various concentrations as described above. The values of kinetic parameters were obtained according to Lineweaver Burke plot analyses as described before (Barroso et al, J. Chromatogr. B. Analyt. Technol. Biomed. Life. Sci. 814 (2005) 21-28).
It is noteworthy that the efficacy of arachidonoyl-lysoPC as a substrate for leukocyte LOX was approximately 10-fold greater than that of arachidonic acid. In an additional study, the oxygenation of arachidonoyl-lysoPC or arachidonoyl-lysoPA by reticulocyte LOX was examined. […]

[3] = molecular target: T3, Leukocyte 12-lipoxygenase (leukocyte LOX) (Sus scrofa, UniProt P16469); experiment: Kinetics of oxygenation of arachidonic acid or arachidonoyl-lysophospholipids by leukocyte LOX; type: biochemical, porcine; details: for Vm: 0.03% Tween 20
T3 construct: purchased Cayman Chemical Co. (Ann Arbor, Mich., USA)
T3 sequence (P16469 1-663): T1 sequence (P16469 1-663)
Protocol: as §1, §2

## CCCCC/C=C\C/C=C\C/C=C\C/C=C\CCCC(=O)OCC(O)COP(=O)([O-])OCC[N+](C)(C)C (stereo not drawn) [Arachidonoyl-lysoPC, 1-Arachidonoyl lysophosphatidylcholine]
[1]
  minor product behaving like 15-HETE in leukocyte LOX-catalyzed oxygenation: ≤ 5%
[2]
  Vm/Km value in reticulocyte LOX-catalyzed oxygenation compared with arachidonic acid: somewhat greater than that of arachidonic acid
[3]; greater than that of arachidonic acid
  efficacy as a substrate for leukocyte LOX (Vm/Km) relative to arachidonic acid: approximately 10 fold
[3]; leukocyte LOX 1 unit/ml, 100 mM phosphate buffer pH 7.5, 5 mM EDTA
  Vm: 199.8 ± 16.7 units/mg
[3]; leukocyte LOX 1 unit/ml, 100 mM phosphate buffer pH 7.5, 5 mM EDTA, 0.03% Tween 20, 25° C.
  Km: 2.6 µM
[3]; leukocyte LOX 1 unit/ml, 100 mM phosphate buffer pH 7.5, 5 mM EDTA, listed as arachidonoyl-lysoPC
  Vm: 199.8 units/mg
